Measurements taken from patent publication US6979673B1, “Method and compositions for modulating somatolactogenic functions” (Trustees of the University of Pennsylvania, priority 1999, dated 2005).

How the values were obtained:
[1] = biological target: T1, PRL (Homo sapiens, UniProt P01236); assay: Co-immunoprecipitation of admixed purified epitope-tagged proteins; assay type: binding; set-up: Full length PRL cDNA was generated by PCR; made in house; host or cells: Drosophila S2 cells (pAc5/V5-HisA); conditions: reducing agent or divalent cation facilitated the interaction
T1 sequence (P01236 29-227): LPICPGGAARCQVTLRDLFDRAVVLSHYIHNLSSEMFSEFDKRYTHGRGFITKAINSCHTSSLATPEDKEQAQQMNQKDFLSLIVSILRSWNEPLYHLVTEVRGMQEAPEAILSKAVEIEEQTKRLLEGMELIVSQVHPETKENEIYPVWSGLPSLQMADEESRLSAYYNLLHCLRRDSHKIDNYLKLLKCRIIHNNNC

[2] = system: IL-3-driven proliferation; assay: IL-3-driven proliferation; assay type: cell-based; conditions: varying concentration of CypB
Experimental: (§1) The effect of exogenous CypB on PRL-driven proliferation was examined with the rat Nb2 T-cell and the human T47D breast cancer line. […] This dose-dependent biphasic effect was most prominent at physiologic concentrations ([…]) of CypB and PRL (50 pM) found in human serum. […] To determine the effect of CypB on cellular growth driven by the larger family of cytokines, to which PRL belongs, proliferation driven by interleukin-2 (IL-2), IL-3 and GH was examined.

[3] = system: Nb2 cells; assay: PRL-driven proliferation of Nb2 cells (3H-thymidine); assay type: cell-based, rat; conditions: for enhancement of PRL-driven growth vs cultures that received only PRL: Nb2 cells, biphasic, most prominent at 5–10 mM CypB and 50 pM PRL
Experimental: as §1
(§2) Nb2-cells (5×10^4; PRL-dependent, rat T-lymphoma) were plated in each well of 96 well plates in a defined DMEM-serum free medium (0.1 mM 2-mercaptoethanol, 1% penicillin/streptomycin, and 1% ITS+ (Calbiochem)). Cells were rested for 24 hours at 37° C. in this defined medium in the absence of PRL before the addition of 5–500 pM PRL (either as human pituitary isolated PRL, National Hormone and Pituitary Program, NIDDK; recombinant human PRL from E. coli, Genzyme; or recombinant human PRL from Drosophila S2 cells) alone or premixed with 1–2000 fold excess of purified CypB. Parallel studies were performed using human pituitary-derived GH (National Hormone and Pituitary Program, NIDDK). Cultures were incubated for 48 hours at 37° C. and proliferation was evaluated by the addition of 0.5 μCi of ^3H-thymidine for four hours followed by harvesting and scintillography. When stimulated with PRL alone, Nb2 cells yield sigmoid shaped growth curves that plateau at approximately 2 ng PRL/ml.

[4] = biological target: T1, PRL; assay: Co-immunoprecipitation of PRL with CypB from human serum; assay type: binding
[5] = system: T47D human breast cancer cells; assay: Nuclear retrotranslocation of PRL, anti-PRL indirect immunofluorescence; assay type: cell-based; conditions: added to defined T47D culture medium; CypB added to EGF-containing medium
Experimental: Experiments were performed to examine the ability of CypB to enhance nuclear retrotranslocation of PRL, and thereby PRL-driven proliferation.
The role of this sequence in the CypB-mediated retrotranslocation of PRL, and its associated enhancement of growth was tested by mutagenic approaches. The putative nuclear localization sequence of CypB was deleted in the mutant CypB-NT.

[6] = system: Nb2 cells; assay: GH-driven proliferation; assay type: cell-based, rat; conditions: physiological concentrations of CypB
Experimental: as §1
as §2, with “When stimulated with PRL alone, Nb2 cells yield sigmoid shaped growth curves that plateau at approximately 2 ng PRL/ml.” left out

[7] = system: IL-2-driven proliferation; assay: IL-2-driven proliferation; assay type: cell-based; conditions: varying concentration of CypB
Experimental: as §1

Substance	direct interaction with PRL (co-immunoprecipitation) [1]	effect on IL-3-driven proliferation [2]	enhancement of PRL-driven growth vs cultures that received only PRL [3]	enhancement of PRL-induced proliferation ([3]; cell line not given)	co-immunoprecipitation of PRL from human serum [4]	T47D nuclei exhibiting anti-PRL immunofluorescence [5]	enhancement of GH-driven proliferation vs GH alone [6]	effect on IL-2-driven proliferation [7]
CypB: cyclophilin B, peptidyl prolyl isomerase, GenBank NM 000942, SEQ ID NO: 1; recombinant His-tagged	interact directly	Neither IL-2- nor IL-3-driven proliferation was altered	eight-fold	failed to enhance	direct co-immunoprecipitation of PRL with CypB from human serum	95–100%	forty-fold	Neither IL-2- nor IL-3-driven proliferation was altered
CypA: recombinant form of the highly homologous cyclophilin family member CypA [reference compound]	failed to interact	–	did not result in any potentiation	–	–	–	–	–
